Consider 13 compounds from US10364263B2, “Cyclic phosphates and cyclic phosphoramidates for the treatment of neurologic disorders” (Retrophin, Inc., priority 2015, dated 2019).

Where two headings read alike, the source gives them in different places.

The nature of data set [1]: Stability in mouse hepatocytes. The settings on record: t1/2, Mouse Hepatocytes. It is filed as in vitro ADME.
Data set [2] can be described thus: Stability in human hepatocytes. It counts as in vitro ADME. The note with it: t1/2, Human Hepatocytes.
The nature of data set [3]: Permeability in porcine brain endothelial cell blood-brain barrier model. It counts as in vitro ADME. The settings on record: pig (endothelial cells), co-cultured with rat astrocytes, pH 7.4, PBECs/As blood-brain barrier model, luminal to basal. An excerpt:
Compounds disclosed herein show the potential to reach mammalian brain by crossing the blood-brain barrier (BBB) from systemic circulation. […] The porcine brain endothelial cell permeability assay is an in vitro BBB model to be used for the prediction of central nervous system (CNS) drug permeability in vivo and for ranking or prioritization of compounds according to their permeability. This system can also be used for mechanistic studies and drug delivery strategies via receptor-mediated transport (transcytosis). The system is a two-dimensional co-culture, non-contact model of two types of primary cells: primary brain endothelial cells obtained from fresh porcine brains, and primary rat astrocytes, obtained from neonatal rats. This ensures barrier formation and functional expression of key transporters.
The endothelial cells were cultured on rat-tail collagen type I and human fibronectin coated Transwell polycarbonate inserts (surface area 0.7 cm^2; pore size 0.4 μm) and the inserts were placed in 24-well plates containing confluent rat astrocytes. This system allows for the formation of a differentiated BBB model suitable for compound permeability in 10 days.
On the day of the experiment, culture medium was removed and cells were pre-incubated for 30 min with HBSS containing 20 mM Hepes pH 7.4 and 0.1% BSA. Donor volume (apical) was 400 μl and receiver volume (basal) 900 μl. Compounds were diluted in assay medium (at the desired concentration) and added to the luminal side (to mimic blood to brain passage). Transport was measured usually after 60 min by detecting the amount of compound from the basal (brain side). The integrity of the cell layers was assessed by measuring the transendothelial electrical resistance (TEER) and by monitoring FITC-dextran (40 KDa) permeation. Inserts with TEER values […] were selected for permeability studies. As FITC-dextran cannot freely permeate lipophilic barriers, a high degree of FITC-dextran transport indicates poor integrity of the cell layer and wells with high FITC-dextran permeability were excluded. FITC-dextran was included as internal control in each insert used for permeability studies. Fluorescence was measured using a fluorimetric detector. Radioactivity was measured by scintillation counting. For LC-MS/MS analysis, aliquots (200 μl) from the basal compartment were diluted with an equal volume of 100% acetonitrile containing 0.1% formic acid, centrifuged to remove cell debris, and evaporated under N2. After reconstitution, samples were analyzed by LC-MS/MS. Mass balance was determined considering the amount of compound recovered in the donor and receiver chamber at the end of the assay relative to the amount added to the donor chamber at time 0.
Permeability was defined as the apparent permeability coefficient (Papp), which is a measure of the appearance rate of the compound in the receiver chamber, expressed in cm/s. Papp is calculated according the following equation: Papp[cm/sec]=Vd*ΔMr/A*Md*Δt, Equation 2: where
Vd=volume in the donor compartment in cm^3 or mL;
ΔMr=total amount of compound in the receiver compartment after t seconds;
Md=donor amount (added at time 0)
Δt=time measured in seconds
A=filter area in cm^2 (for 24 well plate, A=0.7 cm^2).
To correct for the contribution of filter and substrate, Papp was also determined for the cell-free system. Permeability of the endothelial cell layer was determined using the following equation: […], Equation 3: where
Ptotal=the P of the total system,
Pf=P for the cell-free filter, and
Pe=P for the endothelial cell layer alone. In this equation, the total resistance of the system towards passage of a substance is additively composed of two […] resistances: that of the cell monolayer and that of the filter.

The nature of data set [4]: Chemical stability in aqueous solution (phosphate buffered saline, NMR).
[5] abbreviates: Diastereoisomer A, read-out: Papp Diastereoisomer A.
[6] abbreviates: Diastereoisomer B, read-out: Papp Diastereoisomer B.
Where [7] appears, read: pH 7.5, t1/2 (h) Diastereoisomer A, 10 mM phosphate buffer pH 7.5, 37° C., Diastereoisomer A = upfield shift in the 31P NMR.
Where [8] appears, read: pH 7.5, t1/2 (h) Diastereoisomer B, 10 mM phosphate buffer pH 7.5, 37° C., Diastereoisomer B.

With `COC(=O)CCNC(=O)[C@@H]1OP(=O)(OCOC(=O)C(C)(C)C)OCC1(C)C` (stereo partly drawn) [Compound No. 65, (((4R)-4-((3-methoxy-3-oxopropyl)carbamoyl)-5,5-dimethyl-2-oxido-1,3,2-dioxaphosphinan-2-yl)oxy)methyl pivalate], the half-life at 5 µM in data set [1] (Diastereoisomer A), in data set [1] (Diastereoisomer B), in data set [2] (Diastereoisomer A) and in data set [2] (Diastereoisomer B) was < 15 min in each case. Also, the results for the Papp A→B at 60 min in data set [3] (setting [5]) and in data set [3] (setting [6]) were 20.3 ×10⁻⁶ cm/s and 18.3 ×10⁻⁶ cm/s, respectively. In addition, the figures for the half-life at 1 mM in data set [4] (setting [7]) and in data set [4] (setting [8]) were 40.5 h and 7.2 h, respectively.
Turning to `COC(=O)CCNC(=O)[C@@H]1OP(=O)(N[C@@H](C)C(=O)OCc2ccccc2)OCC1(C)C` (stereo partly drawn) [Compound No. 11, Benzyl ((4R)-4-((3-methoxy-3-oxopropyl)carbamoyl)-5,5-dimethyl-2-oxido-1,3,2-dioxaphosphinan-2-yl)-L-alaninate], the half-life (usually the time in which the quantity being followed falls by half) at 5 µM is < 15 min in data set [1] (Diastereoisomer A), < 15 min in data set [1] (Diastereoisomer B), 27.6 min in data set [2] (Diastereoisomer A) and < 15 min in data set [2] (Diastereoisomer B). Besides, the Papp A→B at 60 min in data set [3] (setting [5]) was determined as 3.52 ×10⁻⁶ cm/s; in data set [3] (setting [6]), 3.12 ×10⁻⁶ cm/s. Also, the half-life at 1 mM in data set [4] (pH 7.5, half-lives, phosphate buffered saline solution, both diastereoisomers) is > 60 h; in data set [4] (setting [7]), > 100 h; in data set [4] (setting [8]), > 60 h.
In the case of `COC(=O)CCNC(=O)[C@@H]1OP(=O)(OCCSC(=O)C(C)(C)C)OCC1(C)C` (stereo partly drawn) [Compound No. 2-133, Methyl 3-((4R)-5,5-dimethyl-2-oxido-2-(2-(pivaloylthio)ethoxy)-1,3,2-dioxaphosphinane-4-carboxamido)propanoate], the half-life at 5 µM in data set [1] (Diastereoisomer A), in data set [1] (Diastereoisomer B), in data set [2] (Diastereoisomer A) and in data set [2] (Diastereoisomer B) was < 15 min throughout. Further, the Papp A→B at 60 min in data set [3] (setting [5]) stood at 21.1 ×10⁻⁶ cm/s; in data set [3] (setting [6]) it was 21 ×10⁻⁶ cm/s.
In the case of `COC(=O)CCNC(=O)[C@@H]1OP(=O)(N[C@@H](C)C(=O)OCCc2ccccc2)OCC1(C)C` (stereo partly drawn) [Compound No. 2, Methyl 3-((4R)-5,5-dimethyl-2-oxido-2-(((S)-1-oxo-1-phenethoxypropan-2-yl)amino)-1,3,2-dioxaphosphinane-4-carboxamido)propanoate], the half-life at 5 µM in data set [1] (Diastereoisomer A) was 23.4 min; in data set [1] (Diastereoisomer B), 26.4 min; in data set [2] (Diastereoisomer A), < 15 min; in data set [2] (Diastereoisomer B), < 15 min. Moreover, the Papp A→B at 60 min in data set [3] (setting [5]) was found to be 3.35 ×10⁻⁶ cm/s; in data set [3] (setting [6]) it was 2.61 ×10⁻⁶ cm/s.
For `COC(=O)CCNC(=O)[C@@H]1OP(=O)(OCOC(=O)c2ccccc2)OCC1(C)C` (stereo partly drawn) [Compound No. 64, (((4R)-4-((3-methoxy-3-oxopropyl)carbamoyl)-5,5-dimethyl-2-oxido-1,3,2-dioxaphosphinan-2-yl)oxy)methyl benzoate], the half-life at 5 µM in data set [1] (Diastereoisomer A), in data set [1] (Diastereoisomer B), in data set [2] (Diastereoisomer A) and in data set [2] (Diastereoisomer B) was < 15 min in each case. Moreover, the values for the Papp A→B at 60 min in data set [3] (setting [5]) and in data set [3] (setting [6]) were 16 ×10⁻⁶ cm/s and 20.7 ×10⁻⁶ cm/s, respectively. The half-life at 1 mM in data set [4] (setting [7]) was 87 h; in data set [4] (setting [8]), 13 h.
Regarding `COC(=O)CCNC(=O)[C@@H]1OP(=O)(OCOC(=O)c2cncs2)OCC1(C)C` (stereo partly drawn) [Compound No. 70, (((4R)-4-((3-methoxy-3-oxopropyl)carbamoyl)-5,5-dimethyl-2-oxido-1,3,2-dioxaphosphinan-2-yl)oxy)methyl thiazole-5-carboxylate], the Papp A→B at 60 min in data set [3] (setting [5]) came out at 1.58 ×10⁻⁶ cm/s; in data set [3] (setting [6]), 2.56 ×10⁻⁶ cm/s.
On to `COC(=O)[C@H](C)NP1(=O)OCC(C)(C)[C@H](C(=O)NCCC(=O)OCc2ccncc2)O1` (stereo partly drawn) [compound 20, (2S)-methyl 2-(((4R)-5,5-dimethyl-2-oxido-4-((3-oxo-3-(pyridin-4-ylmethoxy)propyl)carbamoyl)-1,3,2-dioxaphosphinan-2-yl)amino)propanoate], for which the half-life at 5 µM in data set [1] (Diastereoisomer A) is < 15 min; in data set [1] (Diastereoisomer B), < 15 min; in data set [2] (Diastereoisomer A) it was 142 min; in data set [2] (Diastereoisomer B), 65.4 min. For the same compound, the Papp A→B at 60 min in data set [3] (setting [5]) was 4.79 ×10⁻⁶ cm/s; in data set [3] (setting [6]), 3.38 ×10⁻⁶ cm/s. The half-life at 1 mM in data set [4] (setting [7]) and in data set [4] (setting [8]) was > 80 h in each case.
Take `COC(=O)CCNC(=O)[C@@H]1OP(=O)(N[C@@H](C)C(=O)OCc2cccnc2)OCC1(C)C` (stereo partly drawn) [compound 24, methyl 3-((4R)-5,5-dimethyl-2-oxido-2-(((S)-1-oxo-1-(pyridin-3-ylmethoxy)propan-2-yl)amino)-1,3,2-dioxaphosphinane-4-carboxamido)propanoate]: the half-life at 5 µM was < 15 min in data set [1] (Diastereoisomer A), < 15 min in data set [1] (Diastereoisomer B), > 240 min in data set [2] (Diastereoisomer A) and 191 min in data set [2] (Diastereoisomer B). The Papp A→B at 60 min was determined as 0.54 ×10⁻⁶ cm/s in data set [3] (setting [5]) and 0.6 ×10⁻⁶ cm/s in data set [3] (setting [6]).
In the case of `CC(C)(C)C(=O)OCO[P@@]1(=O)OCC(C)(C)[C@H](C(=O)NCCC(=O)O)O1` [Compound No. 91, 3-((2S,4R)-5,5-dimethyl-2-oxido-2-((pivaloyloxy)methoxy)-1,3,2-dioxaphosphinane-4-carboxamido)propanoic acid], the half-life at 5 µM in data set [1] (Diastereoisomer A) is 18 min; in data set [2] (Diastereoisomer A), 67.2 min. Besides, in data set [3] (setting [5]), the Papp A→B at 60 min turned out to be 0.45 ×10⁻⁶ cm/s.
With `COC(=O)CCNC(=O)[C@@H]1OP(=O)(NCCC(=O)OCc2ccccc2)OCC1(C)C` (stereo partly drawn) [compound 117, benzyl 3-(((4R)-4-((3-methoxy-3-oxopropyl)carbamoyl)-5,5-dimethyl-2-oxido-1,3,2-dioxaphosphinan-2-yl)amino)propanoate], the half-life at 5 µM in data set [1] (Diastereoisomer A) is < 15 min; in data set [1] (Diastereoisomer B), < 15 min; in data set [2] (Diastereoisomer A) it was 18.6 min; in data set [2] (Diastereoisomer B), < 15 min. For the same compound, the Papp A→B at 60 min in data set [3] (setting [5]) amounted to 1.95 ×10⁻⁶ cm/s; in data set [3] (setting [6]), 2.9 ×10⁻⁶ cm/s.
As for `COC(=O)CCNC(=O)[C@@H]1OP(=O)(N[C@@H](Cc2ccccc2)C(=O)OCc2ccccc2)OCC1(C)C` (stereo partly drawn) [compound 10, benzyl ((4R)-4-((3-methoxy-3-oxopropyl)carbamoyl)-5,5-dimethyl-2-oxido-1,3,2-dioxaphosphinan-2-yl)-L-phenylalaninate], the half-life at 5 µM in data set [1] (Diastereoisomer A), in data set [1] (Diastereoisomer B), in data set [2] (Diastereoisomer A) and in data set [2] (Diastereoisomer B) was < 15 min in each case. Besides, the Papp A→B at 60 min in data set [3] (setting [5]) amounted to 10.1 ×10⁻⁶ cm/s; in data set [3] (setting [6]), 14 ×10⁻⁶ cm/s.
Consider `COC(=O)CCNC(=O)[C@@H]1OP(=O)(OCOC(=O)OC(C)C)OCC1(C)C` (stereo partly drawn) [Compound No. 69, Methyl 3-((4R)-2-(((isopropoxycarbonyl)oxy)methoxy)-5,5-dimethyl-2-oxido-1,3,2-dioxaphosphinane-4-carboxamido)propanoate], for which the half-life at 5 µM in data set [1] (Diastereoisomer A), in data set [1] (Diastereoisomer B), in data set [2] (Diastereoisomer A) and in data set [2] (Diastereoisomer B) was < 15 min throughout. The Papp A→B at 60 min in data set [3] (setting [5]) came out at 22.8 ×10⁻⁶ cm/s; in data set [3] (setting [6]), 29.9 ×10⁻⁶ cm/s.
As to `CCc1cc(C(=O)OCOP2(=O)OCC(C)(C)[C@H](C(=O)NCCC(=O)OC)O2)n(C)n1` (stereo partly drawn) [Compound No. 84, (((4R)-4-((3-methoxy-3-oxopropyl)carbamoyl)-5,5-dimethyl-2-oxido-1,3,2-dioxaphosphinan-2-yl)oxy)methyl 3-ethyl-1-methyl-1H-pyrazole-5-carboxylate], the half-life at 5 µM in data set [1] (Diastereoisomer A), in data set [1] (Diastereoisomer B), in data set [2] (Diastereoisomer A) and in data set [2] (Diastereoisomer B) was < 15 min each time. In addition, the Papp A→B at 60 min in data set [3] (setting [5]) was 10.1 ×10⁻⁶ cm/s; in data set [3] (setting [6]) it was 14.5 ×10⁻⁶ cm/s.
